# Earlier results in paper PMC11843658 (Journal of Enzyme Inhibition and Medicinal Chemistry, 2025).
# Tested on: Kasumi-1 xenograft
# Parameters: method as in PMID 32551003
# Details: Kasumi-1 xenograft model of acute myeloid leukaemia; cited from earlier work
compound,measurement,value
CC/C(=C\c1ccccc1)[C@@H]1C[C@H]1NC1CC2(C1)CN(CCO)C2 [Compound 5],anticancer effects in xenograft model,potent anticancer effects
